According to US20210401867A1, “PHOTOSENSITIZERS AND METHOD OF TREATING CANCER USING THE SAME” (Cheng-Wen Wu, priority 2018, published 2021):

Columns and labels:
FaDu cells [1] = test: colony forming assay of FaDu cells; assay type: cell-based, human
Experimental: In the following examples, FaDu cells are used in cell viability tests and colony forming assays. FaDu cells (ATCC HTB-43) is a human head-and-neck cell line with squamous phenotype. FaDu cells used in the following examples are cultured in DMEM medium supplemented with 10% fetal bovine serum (FBS) and 1% penicillin/streptomycin, in a humidified incubator maintained at 37° C. and 5% CO2.
Referring to FIGS. 9A-C, an in vitro cell viability chart of FaDu cells when treated with BrdU alone, NR alone, and BrdU and NR, is provided in accordance with an exemplary embodiment of the present disclosure. NR treatments in FIGS. 9A, 9B, and 9C are similar with the experiment procedures for FIG. 6. In samples where FaDu cells are treated with BrdU and NR, FaDu cells are incubated with BrdU for 24 hours before irradiated with NR. Referring to FIG. 9B, a colony forming assay result of FaDu cells after the treatments described in […], is provided in accordance with an exemplary embodiment of the present disclosure. The colony forming assay in FIG. 9B are proceeded as following: FaDu cells treated by different regimens are grouped and seeded in 6-well-plates with 1000 cells in each of the well and cultured for 14 days; the culture medium was replaced every 3 to 4 days; in the end of the experiment, the cells are washed twice with PBS and fixed with 4% paraformaldehyde for 15 minutes and stained with 0.1% crystal violet. Referring to FIG. 9C, a quantitative result of the colony forming assay in FIG. 9B is provided in accordance with an exemplary embodiment of the present disclosure. In FIG. 9C, the results of the colony forming assay are quantified by microscopic examination by stereomicroscope.

FaDu cells [2] = test: in vitro cell viability of FaDu cells; assay type: cell-based, human; conditions: for cytotoxicity: viability and colony forming

**Q.** What does the source list for dibromocurcumin [DBC]?
**A.** colony forming assay versus DBC or NR alone (FaDu cells [1]; DBC combined with 1 Gy of 14 keV NR): same result; colony forming inhibition (FaDu cells [1]; FaDu cells, 40 μM DBC): about 50%; cytotoxicity to FaDu cells (FaDu cells [2]; 20 μM of DBC combined with 1 Gy of NR): significantly higher than using DBC or NR alone; cytotoxicity of the combination with NR (FaDu cells [2]; DBC and NR, FaDu cells): synergistic cytotoxicity; cytotoxicity (FaDu cells [2]; DBC dosage less than 20 μM): little cytotoxicity; cytotoxicity (FaDu cells [2]; DBC dosage more than 120 μM): efficiently kills FaDu cells; cell viability (FaDu cells [2]; FaDu cells, 80 μM DBC for 24 hours, Day 7): less than 50%
